From ChEMBL document CHEMBL1201862, “PubChem BioAssay data set” (2004)
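Interpolation was linear, between the two tested concentrations surrounding the appropriate level; five concentrations were tested over 48 hours in 96-well plates. At the GI50, growth is halved.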 The source made the active and inactive calls. Rule as the data show it: active = GI50 up to about 1.1 µM and inactive = higher. Where a SMILES comes first, the peptide text is derived from it. [ ]: non-standard residue; d: D form. The star is where a group is joined. NMeF = CN[CH](Cc1ccccc1)C(=O)O; NMeV = CN[CH](C(=O)O)C(C)C; Boc = CC(C)(C)OC(=O)*; OBn = c1ccc(CO*)cc1

How the values were obtained:
Experiment in all cases: inhibition of tumour cell growth, NCI panel, 48 h
EKVX = test system: EKVX
SF-539 = test system: SF-539
SF-295 = test system: SF-295
SK-MEL-5 = test system: SK-MEL-5
CAKI-1 = test system: CAKI-1
NCI/ADR-RES = test system: NCI/ADR-RES
SF-268 = test system: SF-268
HCT-116 = test system: HCT-116
Malme-3M = test system: Malme-3M
T47D = test system: T47D
ACHN = test system: ACHN
SW-620 = test system: SW-620
MCF7 = test system: MCF7
SR = test system: SR
U-251 = test system: U-251
A549 = test system: A549
NCI-H460 = test system: NCI-H460
UACC-257 = test system: UACC-257
MDA-N = test system: MDA-N

Structure (SMILES) | GI50 (EKVX) | GI50 (SF-539) | GI50 (SF-295) | GI50 (SK-MEL-5) | GI50 (CAKI-1) | GI50 (NCI/ADR-RES) | GI50 (SF-268) | GI50 (HCT-116) | GI50 (Malme-3M) | GI50 (T47D) | GI50 (ACHN) | GI50 (SW-620) | GI50 (MCF7) | GI50 (SR) | GI50 (U-251) | GI50 (A549) | GI50 (NCI-H460) | GI50 (UACC-257) | GI50 (MDA-N)
COc1nc(OC)nc(-c2cccc(F)c2)n1 | 4.6 µM (inactive) | 17.4 µM (inactive) | 13.4 µM (inactive) | 15.6 µM (inactive) | < 0.01 µM (active) | 14.3 µM (inactive) | 14 µM (inactive) | 16.7 µM (inactive) | 15.2 µM (inactive) | 13.2 µM (inactive) | 16.4 µM (inactive) | 17.7 µM (inactive) | 15.9 µM (inactive) | 2.2 µM (inactive) | 15.7 µM (inactive) | 17.1 µM (inactive) | 14.9 µM (inactive) | 14.3 µM (inactive) | –
CC[N+](CC)(CCNCC(N)=O)CC(N)=O | > 10 µM (inactive) | > 10 µM (inactive) | > 10 µM (inactive) | > 10 µM (inactive) | > 10 µM (inactive) | > 10 µM (inactive) | > 10 µM (inactive) | > 10 µM (inactive) | > 10 µM (inactive) | – | > 10 µM (inactive) | > 10 µM (inactive) | > 10 µM (inactive) | – | > 10 µM (inactive) | > 10 µM (inactive) | > 10 µM (inactive) | > 10 µM (inactive) | > 10 µM (inactive)
Oc1ccc(Cl)cc1C1=NC(NCN2CCN(CNC3=NC(c4ccccc4)CC(c4cc(Cl)ccc4O)=N3)CC2)=NC(c2ccccc2)C1 (stereo unspecified) | 48.3 µM (inactive) | 72.1 µM (inactive) | 32.3 µM (inactive) | 93.5 µM (inactive) | 29.5 µM (inactive) | 38.4 µM (inactive) | 32.7 µM (inactive) | 20.4 µM (inactive) | 93.5 µM (inactive) | – | 24.8 µM (inactive) | 33.1 µM (inactive) | 9.08 µM (inactive) | 28 µM (inactive) | 35.4 µM (inactive) | 36.1 µM (inactive) | 35.2 µM (inactive) | > 100 µM (inactive) | 50.2 µM (inactive)
CC1(C)S[C@H](CN)N[C@H]1C(=O)OC(c1ccccc1)c1ccccc1 | 47.2 µM (inactive) | – | 41.7 µM (inactive) | 17.2 µM (inactive) | 34.4 µM (inactive) | > 100 µM (inactive) | 88.1 µM (inactive) | 33.8 µM (inactive) | 31.4 µM (inactive) | 27.9 µM (inactive) | 84.3 µM (inactive) | 43.6 µM (inactive) | 61.9 µM (inactive) | 27.9 µM (inactive) | 33 µM (inactive) | 42.2 µM (inactive) | – | 17.4 µM (inactive) | –
CC(C)OP(=O)(OC(C)C)/C(=N/Nc1ccccc1[N+](=O)[O-])NCCN/C(=N\Nc1ccccc1[N+](=O)[O-])P(=O)(OC(C)C)OC(C)C | 28.9 µM (inactive) | 38.1 µM (inactive) | – | > 10 µM (inactive) | 25.6 µM (inactive) | – | 67.1 µM (inactive) | 27.9 µM (inactive) | 23.1 µM (inactive) | – | 30.1 µM (inactive) | 35.5 µM (inactive) | – | – | 29.6 µM (inactive) | 29.4 µM (inactive) | > 10 µM (inactive) | 29.2 µM (inactive) | –
COc1ccc(N2C(=O)C3ON(C(C(N)=O)c4ccccc4)C(c4ccc(-c5ccccc5)cc4)C3C2=O)cc1 (stereo unspecified) | > 50 µM (inactive) | > 50 µM (inactive) | > 50 µM (inactive) | – | > 50 µM (inactive) | > 50 µM (inactive) | > 50 µM (inactive) | > 50 µM (inactive) | 31.8 µM (inactive) | > 50 µM (inactive) | > 50 µM (inactive) | > 50 µM (inactive) | 31.3 µM (inactive) | > 50 µM (inactive) | > 50 µM (inactive) | > 50 µM (inactive) | > 50 µM (inactive) | > 50 µM (inactive) | –
Cc1cn(C2OC(C)(CO)C(O)C2O)c(=O)[nH]c1=O (stereo unspecified) | – | > 100 µM (inactive) | > 100 µM (inactive) | > 100 µM (inactive) | > 100 µM (inactive) | – | > 100 µM (inactive) | > 100 µM (inactive) | > 100 µM (inactive) | – | > 100 µM (inactive) | > 100 µM (inactive) | – | > 100 µM (inactive) | > 100 µM (inactive) | > 100 µM (inactive) | > 100 µM (inactive) | – | –
O=C1CSC(c2ccc([N+](=O)[O-])cc2)N1c1nc(-c2ccc3c(c2)CCCC3)cs1 (stereo unspecified) | > 100 µM (inactive) | 27.2 µM (inactive) | > 100 µM (inactive) | 51.1 µM (inactive) | > 100 µM (inactive) | > 100 µM (inactive) | > 100 µM (inactive) | > 100 µM (inactive) | > 100 µM (inactive) | – | > 100 µM (inactive) | > 100 µM (inactive) | 31.7 µM (inactive) | > 100 µM (inactive) | > 100 µM (inactive) | – | > 100 µM (inactive) | > 100 µM (inactive) | > 100 µM (inactive)
CCN(CC)C(=S)Nc1ccc(-c2cc3ccc(O)cc3oc2=O)cc1 | 32 µM (inactive) | 29.2 µM (inactive) | 36.5 µM (inactive) | 22.3 µM (inactive) | 31.2 µM (inactive) | 20.6 µM (inactive) | 32.1 µM (inactive) | 26.1 µM (inactive) | 17 µM (inactive) | – | 25.9 µM (inactive) | 34 µM (inactive) | > 10 µM (inactive) | 14.5 µM (inactive) | 11.8 µM (inactive) | 44.9 µM (inactive) | 31.4 µM (inactive) | 22 µM (inactive) | 24.8 µM (inactive)
CC(=O)C1=C(C)N(c2ccccc2)C2(O)C=CC(O)=C3C(=O)c4ccccc4C(=O)C312 (stereo unspecified) | 18.2 µM (inactive) | 21.1 µM (inactive) | 14.9 µM (inactive) | 10.6 µM (inactive) | 14.3 µM (inactive) | 3.36 µM (inactive) | 20.2 µM (inactive) | 8.15 µM (inactive) | 0.748 µM (active) | 8.75 µM (inactive) | 11.4 µM (inactive) | 7.64 µM (inactive) | 22.3 µM (inactive) | 8.55 µM (inactive) | 18 µM (inactive) | 15.3 µM (inactive) | 8.87 µM (inactive) | 5.65 µM (inactive) | –
C[C@H]1CC(=O)C2=CCCC3(SCCCS3)[C@@H]2[C@H]1CO | > 100 µM (inactive) | > 100 µM (inactive) | > 100 µM (inactive) | > 100 µM (inactive) | > 100 µM (inactive) | – | > 100 µM (inactive) | 89.5 µM (inactive) | > 100 µM (inactive) | – | > 100 µM (inactive) | > 100 µM (inactive) | – | 54.3 µM (inactive) | 91.4 µM (inactive) | > 100 µM (inactive) | > 100 µM (inactive) | > 100 µM (inactive) | –
CCOC(=O)C1=CCOc2cc(N(C)C)ccc21 | > 100 µM (inactive) | > 100 µM (inactive) | > 100 µM (inactive) | > 100 µM (inactive) | > 100 µM (inactive) | > 100 µM (inactive) | 97.5 µM (inactive) | > 100 µM (inactive) | > 100 µM (inactive) | – | > 100 µM (inactive) | > 100 µM (inactive) | > 100 µM (inactive) | 65.9 µM (inactive) | > 100 µM (inactive) | > 100 µM (inactive) | > 100 µM (inactive) | > 100 µM (inactive) | > 100 µM (inactive)
C1=CN2C[n+]3cccc(OCc4ccccc4)c3N=C2C(OCc2ccccc2)=C1 | 24.2 µM (inactive) | 4.25 µM (inactive) | 6.84 µM (inactive) | 5 µM (inactive) | 22 µM (inactive) | > 100 µM (inactive) | 6.25 µM (inactive) | 23.3 µM (inactive) | 12.3 µM (inactive) | 12.8 µM (inactive) | > 100 µM (inactive) | 11.9 µM (inactive) | 13.5 µM (inactive) | – | 4.51 µM (inactive) | 19.5 µM (inactive) | 32.6 µM (inactive) | 8.71 µM (inactive) | –
CCOC(OCC)[C@H](N)[C@@H](O)[C@@H](O)[C@H]1COC(C)(C)O1 | > 100 µM (inactive) | – | > 100 µM (inactive) | > 100 µM (inactive) | – | > 100 µM (inactive) | > 100 µM (inactive) | > 100 µM (inactive) | > 100 µM (inactive) | – | > 100 µM (inactive) | > 100 µM (inactive) | > 100 µM (inactive) | > 100 µM (inactive) | > 100 µM (inactive) | > 100 µM (inactive) | – | > 100 µM (inactive) | > 100 µM (inactive)
CC1=CC(=O)/C(=C/NC(=O)NN)C(=O)O1 | 34.1 µM (inactive) | 77.8 µM (inactive) | > 100 µM (inactive) | > 100 µM (inactive) | > 100 µM (inactive) | 94.2 µM (inactive) | > 100 µM (inactive) | > 100 µM (inactive) | – | – | > 100 µM (inactive) | > 100 µM (inactive) | > 100 µM (inactive) | – | > 100 µM (inactive) | > 100 µM (inactive) | > 100 µM (inactive) | > 100 µM (inactive) | > 100 µM (inactive)
O=C(OC1CCC(=C2SCCCS2)[C@H]1C1SCCCS1)c1ccccc1 (stereo partly specified) | > 100 µM (inactive) | > 100 µM (inactive) | > 100 µM (inactive) | – | – | – | – | 88.3 µM (inactive) | 94.6 µM (inactive) | – | > 100 µM (inactive) | > 100 µM (inactive) | – | – | > 100 µM (inactive) | > 100 µM (inactive) | > 100 µM (inactive) | > 100 µM (inactive) | –
CC(C)C(NC(=O)OC(C)(C)C)C(=O)N(C)C(Cc1ccccc1)C(=O)N(C)C(C(=O)N(C)C(C(=O)OCc1ccccc1)C(C)C)C(C)C (stereo unspecified) (Boc-V[NMeF][NMeV][NMeV]-OBn; configuration not given here) | 89.1 µM (inactive) | > 100 µM (inactive) | 51.2 µM (inactive) | 12.5 µM (inactive) | – | – | > 100 µM (inactive) | 66.5 µM (inactive) | 24.8 µM (inactive) | – | 26.4 µM (inactive) | > 100 µM (inactive) | – | 20.8 µM (inactive) | > 100 µM (inactive) | > 100 µM (inactive) | > 100 µM (inactive) | 39.6 µM (inactive) | –
